ChEMBL document CHEMBL5518233, “Design and Synthesis of 3-(2H-Chromen-3-yl)-5-aryl-1,2,4-oxadiazole Derivatives as Novel Toll-like Receptor 2/1 Agonists That Inhibit Lung Cancer In Vitro and In Vivo” (J Med Chem, 2024)
Where a SMILES comes first, the peptide text is derived from it. The star is where a group is joined. X1 = CCCCCCCCCCCCCCCC(=O)OCC(C*)OC(=O)CCCCCCCCCCCCCCC; Palmitoyl = CCCCCCCCCCCCCCCC(=O)*

Assays:
[1] = target: T1, Toll-like receptor 1/2 (Homo sapiens, UniProt O60603+Q15399); assay: Agonist activity at human TLR2/TLR1 transfected in HEK293T cells incubated for 24 hrs by dual luciferase reporter gene assay; type: cell-based
T1 sequence (O60603 whole entry): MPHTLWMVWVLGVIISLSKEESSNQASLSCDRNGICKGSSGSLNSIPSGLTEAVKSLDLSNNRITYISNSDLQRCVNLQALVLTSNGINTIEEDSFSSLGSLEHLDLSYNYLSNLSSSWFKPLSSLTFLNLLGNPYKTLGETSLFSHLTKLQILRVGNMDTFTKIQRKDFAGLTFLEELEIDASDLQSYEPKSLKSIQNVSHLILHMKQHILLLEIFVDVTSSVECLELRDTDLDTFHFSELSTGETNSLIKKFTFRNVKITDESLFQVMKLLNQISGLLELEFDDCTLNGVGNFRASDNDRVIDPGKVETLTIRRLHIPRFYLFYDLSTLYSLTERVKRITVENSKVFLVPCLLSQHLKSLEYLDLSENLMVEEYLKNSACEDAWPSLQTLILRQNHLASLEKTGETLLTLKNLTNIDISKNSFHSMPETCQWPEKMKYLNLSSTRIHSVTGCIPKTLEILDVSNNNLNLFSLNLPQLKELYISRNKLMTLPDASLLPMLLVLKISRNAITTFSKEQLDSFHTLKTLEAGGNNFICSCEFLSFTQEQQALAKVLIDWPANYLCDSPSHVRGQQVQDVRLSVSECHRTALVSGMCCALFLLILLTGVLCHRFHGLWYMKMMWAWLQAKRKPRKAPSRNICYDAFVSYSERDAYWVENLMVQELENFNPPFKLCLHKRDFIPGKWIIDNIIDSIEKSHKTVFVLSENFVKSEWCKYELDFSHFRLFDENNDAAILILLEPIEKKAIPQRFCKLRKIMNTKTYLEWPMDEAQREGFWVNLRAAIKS
T1 sequence (Q15399 whole entry): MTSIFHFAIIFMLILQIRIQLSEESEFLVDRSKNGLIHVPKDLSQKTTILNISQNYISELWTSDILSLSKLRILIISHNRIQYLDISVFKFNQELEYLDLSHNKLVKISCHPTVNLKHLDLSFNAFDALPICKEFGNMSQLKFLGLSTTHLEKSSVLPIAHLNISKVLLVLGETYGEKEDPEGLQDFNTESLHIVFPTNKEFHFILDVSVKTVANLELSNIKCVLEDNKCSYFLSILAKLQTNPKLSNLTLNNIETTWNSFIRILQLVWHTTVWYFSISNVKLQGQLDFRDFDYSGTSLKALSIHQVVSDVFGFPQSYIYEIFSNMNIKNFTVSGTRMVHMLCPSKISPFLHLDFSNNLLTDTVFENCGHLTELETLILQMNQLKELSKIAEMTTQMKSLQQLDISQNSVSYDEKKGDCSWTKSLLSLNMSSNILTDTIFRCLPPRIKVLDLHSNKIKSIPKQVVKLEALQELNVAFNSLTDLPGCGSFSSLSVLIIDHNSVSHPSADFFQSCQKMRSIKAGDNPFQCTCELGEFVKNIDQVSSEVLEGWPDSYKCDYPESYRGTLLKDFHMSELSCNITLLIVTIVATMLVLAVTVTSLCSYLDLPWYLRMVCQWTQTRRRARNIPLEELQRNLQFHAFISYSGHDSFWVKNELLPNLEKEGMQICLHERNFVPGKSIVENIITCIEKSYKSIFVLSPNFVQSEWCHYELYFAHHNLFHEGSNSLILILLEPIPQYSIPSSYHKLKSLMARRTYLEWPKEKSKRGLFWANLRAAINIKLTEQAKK

[2] = Antitumor activity against mouse Lewis lung carcinoma cell line xenografted with C57BL/6J mouse assessed as tumor growth inhibition at 5 mg/kg,ip administrated every 2 days for 21 days relative to control; type: functional; conditions: 504 h, time 21 day, read-out: TGI
[3] = target: T1, Toll-like receptor 1/2; assay: Agonist activity at human TLR2/TLR1 transfected in HEK293T cells assessed as relative light unit at 100 ng/ml incubated for 24 hrs by dual luciferase reporter gene assay; type: cell-based; conditions: filed as agonist
[4] = test system: A549; assay: Antitumor activity against human A549 cells xenografted with BALB/c mouse assessed as tumor growth inhibition at 5 mg/kg,ip administrated every 2 days for 30 days relative to control; type: functional; conditions: A549, 720 h, time 30 day, read-out: TGI

SMILES | EC50 [1] [nM] | inhibition in vivo at 5 mg/kg [2] [%] | Activity [3] [RLU] | inhibition in vivo at 5 mg/kg [4] [%]
CNc1ccc([N+](=O)[O-])cc1-n1cnc(-c2ccc(C(F)(F)F)cc2O)c1 | 35 | 63.5 | – | –
O=[N+]([O-])c1ccc(F)c(-c2nc(C3=Cc4ccccc4OC3)no2)c1 | 30.1 | – | – | –
CCCCCCCCCCCCCCCC(=O)N[C@@H](CSCC(COC(=O)CCCCCCCCCCCCCCC)OC(=O)CCCCCCCCCCCCCCC)C(=O)N[C@@H](CO)C(=O)N[C@@H](CCCCN)C(=O)N[C@@H](CCCCN)C(=O)N[C@@H](CCCCN)C(=O)N[C@@H](CCCCN)C(=O)O (stereo partly specified) (Palmitoyl-C(X1)SKKKK-OH) | – | – | 7.95 | –
O=c1[nH]cc(F)c(=O)[nH]1 [FLUOROURACIL] | – | 79.4 | – | 77.5
